Results published in patent US12022833B2, “Uracil compound and composition for controlling harmful arthropods comprising the same” (Sumitomo Chemical Company, Limited, priority 2018, dated 2024).

System: diamondback moth (Plutella xylostella)
Test: Test Example 1: cabbage seedling spray test against diamondback moth larvae
Assay type: in vivo
Settings: 500 ppm diluted solution sprayed on cabbage seedling, 20 mL/seedling; five second instar larvae; 25° C. for 5 days
Description: Thirty-five (35) parts of a mixture of polyoxyethylene alkyl ether sulfate ammonium salt and wet silica (weight ratio of 1:1), 20 parts of the compound A, and 45 parts of water were mixed thoroughly. The resulting mixture was diluted with water containing 0.03 v/v % of Shindain (registered trademark) to prepare a diluted solution containing 500 ppm of the compound A. The diluted solution was sprayed into the cabbage (Brassicae oleracea) seedling (on the developmental stage of the second to third true leaf) that is planted in a container in a ratio of 20 mL/seedling.
Thereafter, the stem and leaf of thereof was cut out and then was installed into the container that was covered with the filter paper. Five second instar larvae of diamondback moth (Plutella xylostella) were released into the container, and the container was allowed to stand at 25° C. for 5 days. Thereafter, the surviving insects were counted, and the mortality was calculated from the following equation, and as a result, the mortality was 100%. Mortality (%)=(1−Number of the surviving insects/5)×100
The test was carried out according to Test Example 1 using the compound B instead of the compound A. As a result, the mortality was 0%.

Structure (SMILES): CCOC(=O)COC(=O)COc1ncccc1Oc1cc(-n2c(=O)cc(C(F)(F)F)n(C)c2=O)c(F)cc1Cl [Compound A]
- Mortality: 100%

Structure (SMILES): COC(=O)COC(=O)COc1ncccc1Oc1cc(-n2c(=O)cc(C(F)(F)F)n(C)c2=O)c(F)cc1Cl [Compound B]
- Mortality: 0%
